Laboratory results published in patent US11897880B2, “7,8-dihydrobenzo[e]pyrido[3,4-c]azocine-2,5(3H,6H)-dione derivatives useful as a factor XIa inhibitors” (Janssen Pharmaceutica NV, priority 2021, dated 2024).
Read-outs that look alike come from different tables or passages of the source.

Experiments:
Factor XIa = Factor XIa (Homo sapiens, UniProt P03951); experiment: Factor XIa inhibition assay utilizing a fluorophore-quencher pair peptide substrate (FLINT); assay type: biochemical; conditions: for IC50: read-out: FXIa IC50; for Ki: read-out: FXIa Ki
Sequence of Factor XIa (P03951 388-625 limits assumed): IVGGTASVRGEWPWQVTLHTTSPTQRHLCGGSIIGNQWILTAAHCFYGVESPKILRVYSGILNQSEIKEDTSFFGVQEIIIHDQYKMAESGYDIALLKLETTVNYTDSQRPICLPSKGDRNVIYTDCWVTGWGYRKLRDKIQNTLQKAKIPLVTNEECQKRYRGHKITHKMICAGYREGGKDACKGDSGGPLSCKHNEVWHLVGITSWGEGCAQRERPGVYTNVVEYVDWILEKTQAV
Sequence of Factor XIa (P03951 19-387 partner limits assumed): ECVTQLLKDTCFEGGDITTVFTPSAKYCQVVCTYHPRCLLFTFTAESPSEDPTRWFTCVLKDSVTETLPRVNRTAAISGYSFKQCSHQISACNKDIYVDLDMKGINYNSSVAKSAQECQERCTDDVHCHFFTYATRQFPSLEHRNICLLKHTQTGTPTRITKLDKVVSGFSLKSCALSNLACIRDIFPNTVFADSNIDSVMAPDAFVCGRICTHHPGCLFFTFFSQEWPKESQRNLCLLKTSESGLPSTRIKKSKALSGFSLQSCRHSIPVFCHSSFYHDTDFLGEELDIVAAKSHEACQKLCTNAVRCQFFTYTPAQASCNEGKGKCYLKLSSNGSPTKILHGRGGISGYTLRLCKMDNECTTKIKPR
Text: Biological Example 1: Factor XIa Inhibition Assay Utilizing a Fluorophore-Quencher Pair Peptide Substrate
A fluorescence intensity (FLINT) based assay was used to monitor inhibition of Factor XIa. The peptide substrate, 5Fam-KLTRAETV-K5Tamra (purchased from New England Peptide) was chosen based on the FXI sequence. Conversion of zymogen FXI to its activated form, FXIa, occurs by proteolytic cleavage by […] at two sites, Arg146 and Arg180. The custom peptide used in this assay was based on the Arg146 cleavage site of FXI. The peptide substrate was designed with a fluorophore-quencher pair, where the fluorescence is quenched until FXIa cleaves the 8-mer peptide after the Arg residue.
The Factor XIa FLINT assay was used with the following 5Fam-KLTRAETV-K5Tamra assay buffer: 50 mM Tris, pH 7.5, 100 mM NaCl, 5 mM CaCl2), 0.1 mg/mL BSA, 0.03% CHAPS. Assay buffer was prepared by mixing all ingredients fresh. 5Fam-KLTRAETV-K5Tamra peptide substrate was first prepared at 10 mM in 100% DMSO, then diluted to 3 mM in 100% DMSO. Assay buffer was then added directly to the 3 mM stock of substrate to prepare the 30 μM 2× working concentration (15 μM final concentration). The 2× Factor XIa stock solution was prepared by diluting 6.562 μM stock in 1× assay buffer for a […].
Test compound(s) were run in an 11-point, 3-fold serial dilution with a final top compound concentration of 100 nM. Final DMSO in assay was 2%. FXIa was preincubated with compound for 30-minutes and then substrate was added to initiate the reaction. The assay was run with kinetic (KIN) reads at 5 min intervals over 30 minutes. The time course was linear using […] FXIa greater than 30 minutes. More specifically, the assay was run as follows: • 100 nL of 0.01 mM test compound was dispensed into black 384-well non-binding Greiner BioOne 784900 plate for 0.1 μM final concentration; • 5 μL of 1× assay buffer was dispensed to column 24 (low control) and 5 μL 2× Factor XIa solution was dispensed to columns 1-23 (column 23 high control); • the plate was centrifuged with a “cover” plate at 500 rpm for 1 min • the plate was pre-incubated for 30 minutes at room temperature with plate covered; • 5 μL of 2×5Fam-KLTRAETV-K5Tamra peptide substrate was dispensed into the entire plate, columns 1-24; • the plate was centrifuged with a “cover” plate at 500 rpm for 1 min; • the plate was read monitoring fluorescence intensity on the BMG PHERAStar at room temperature, using fluorescence module 485 nm/520 nm.
Percent inhibition (IC50) curves were generated per compound tested, and data was analyzed using a 4-parameter logistic fit using GeneData Screener. The relative fluorescence unit (RFU) values were normalized to percent inhibition using the following equation: % inhibition=((HC−LC)−(compound−LC)/(HC−LC))*100
where LC−low control=mean signal of no Factor XIa or 100% inhibition of Factor XIa; HC−high control=mean signal of Factor XIa+5Fam-KLTRAETV-K5Tamra peptide substrate with DMSO only.
An 11-point dose response curve for the test compound(s) was generated using GENDATA to determine IC50 value based on the following equation: Y=Bottom+(Top−Bottom)/(1+10^((log IC50−X)*HillSlope))
where Y is the % inhibition in the presence of X inhibitor concentration, Top=high control=mean signal of Factor XIa+5Fam-KLTRAETV-K5Tamra peptide substrate with DMSO only; Bottom=low control−mean signal of no Factor XIa or 100% inhibition of Factor XIa; HillSlope−Hill coefficient; and IC50=concentration of compound with 50% inhibition in relation to top/high control.
(§1) Representative compounds of formula (I) of the present invention were tested according to the procedure described in Biological Example 1 and Biological Example 2 above, with results as listed in Table 3, below.

human plasma kallikrein = human plasma kallikrein (Homo sapiens, UniProt P03952); experiment: Kallikrein inhibition assay utilizing a quenched AMC peptide substrate (FLINT); assay type: biochemical; conditions: 30 min preincubation, 50 μM Z-Gly-Pro-Arg-AMC, 2 nM kallikrein
Sequence of human plasma kallikrein (P03952 391-638 limits assumed): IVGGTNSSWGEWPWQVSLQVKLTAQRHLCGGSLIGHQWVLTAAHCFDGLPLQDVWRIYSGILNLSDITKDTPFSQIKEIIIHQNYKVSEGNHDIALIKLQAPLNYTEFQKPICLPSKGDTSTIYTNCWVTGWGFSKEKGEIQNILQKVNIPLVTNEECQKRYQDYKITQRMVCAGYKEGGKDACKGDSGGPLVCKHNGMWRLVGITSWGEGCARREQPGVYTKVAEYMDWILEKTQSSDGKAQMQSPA
Sequence of human plasma kallikrein (P03952 20-390 partner limits assumed): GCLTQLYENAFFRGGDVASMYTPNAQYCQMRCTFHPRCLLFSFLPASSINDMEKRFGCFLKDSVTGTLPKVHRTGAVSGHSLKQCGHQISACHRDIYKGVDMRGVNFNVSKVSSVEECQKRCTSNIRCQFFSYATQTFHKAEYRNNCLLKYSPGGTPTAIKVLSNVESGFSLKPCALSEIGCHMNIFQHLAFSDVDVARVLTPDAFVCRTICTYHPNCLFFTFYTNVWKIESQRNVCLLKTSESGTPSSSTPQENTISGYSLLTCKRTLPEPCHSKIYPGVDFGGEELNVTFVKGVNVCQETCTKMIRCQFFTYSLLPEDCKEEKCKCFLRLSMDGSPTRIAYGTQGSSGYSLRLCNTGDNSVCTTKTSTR
Text: Biological Example 2: Kallikrein Inhibition Assay Utilizing a Quenched AMC Peptide Substrate
A fluorescence intensity (FLINT) based assay was used to monitor inhibition of human plasma kallikrein. The peptide substrate, Z-Gly-Pro-Arg-AMC (Purchased from Bachem; Catalog #1-1150) was chosen based on its relatively low KM for kallikrein which enables running the assay at lower substrate concentrations to control background fluorescence.
The Kallikrein FLINT assay was used with the following Z-Gly-Pro-Arg-AMC assay buffer: 50 mM Tris, pH 7.5, 100 mM NaCl, 5 mM CaCl2), 0.1 mg/mL BSA, 0.03% CHAPS. Assay buffer was prepared by mixing all ingredients fresh. 2× Z-Gly-Pro-Arg-AMC peptide substrate was prepared by diluting 10 mM stock into 1× assay buffer for a 100 μM working concentration (50 μM final concentration). The 2× kallikrein stock solution was prepared by diluting 14.76 μM stock in 1× assay buffer for a 4 nM working stock solution (2 nM final concentration).
Test compound(s) were run in an 11-point, 3-fold serial dilution with a final top compound concentration of 1 μM. Final DMSO in assay was 2%. Plasma kallikrein was pre-incubated for 30-minute with compound and then 50 μM substrate was added to initiate the reaction. The assay was run with kinetic (KIN) reads at 5 min intervals over 30 minutes. The time course was linear using 2 nM kallikrein greater than 30 minutes. More specifically, the assay was run as follows: • 100 nL of 0.1 mM test compound was dispensed into black 384-well non-binding Greiner BioOne 784900 plate for 1 μM final concentration; • 5 μL of 1× assay buffer was dispensed to columns 24 (low control) and 5 μL 2× human kallikrein enzyme solution was dispensed to columns 1-23 (column 23 high control); • the plate was centrifuged with a “cover” plate at 500 rpm for 1 min • the plate was pre-incubated for 30 minutes at room temperature with plate covered; • 5 μL of 2× Z-Gly-Pro-Arg-AMC peptide substrate was dispensed into the entire plate, columns 1-24; • the plate was centrifuged with a “cover” plate at 500 rpm for 1 min; the plate was read monitoring fluorescence intensity on the BMG PHERAStar at room temperature, using fluorescence module 340 nm/440 nm.
Percent inhibition (IC50) curves were generated per compound tested, and data was analyzed using a 4-parameter logistic fit using GeneData Screener. The relative fluorescence unit (RFU) values were normalized to percent inhibition using the following equation: % inhibition=((HC−LC)−(compound−LC)/(HC−LC))*100 where LC—low control=mean signal of human kallikrein enzyme or 100% inhibition of human kallikrein enzyme; HC—high control=mean signal of […]+Z-Gly-Pro-Arg-AMC peptide substrate with DMSO only.
An 11-point dose response curve for the test compound(s) was generated using GENDATA to determine IC50 value based on the following equation: Y=Bottom+(Top−Bottom)/(1+10^((log IC50−X)*HillSlope)) • where Y is the % inhibition in the presence of X inhibitor concentration, Top=high control=mean signal of human kallikrein enzyme+Z-Gly-Pro-Arg-AMC peptide substrate with DMSO only; Bottom=low control−mean signal of no human kallikrein enzyme or 100% inhibition of human kallikrein enzyme; HillSlope—Hill coefficient; and IC50=concentration of compound with 50% inhibition in relation to top/high control.
as §1

[1] = cells that print μM themselves in the nM column, same assay conditions
[2] = 30 min preincubation, 5Fam-KLTRAETV-K5Tamra substrate 15 μM final, kinetic reads
[3] = cells that print μM themselves in the nM column

Structure (SMILES)	IC50 (Factor XIa; [1]) [µM]	Ki (Factor XIa) [µM]	IC50 (human plasma kallikrein) [nM]	IC50 (Factor XIa; [2]) [µM]	Ki (Factor XIa; [3]) [µM]
CC1(C)Cc2ccc(Cl)c(F)c2-c2cc(=O)n3c(c2C(=O)N1)CC[C@@H]3c1ncc(-c2ccc(N)nc2F)[nH]1 (single isomer, unassigned) [Compound 21, (R*)-12-(5-(6-amino-2-fluoropyridin-3-yl)-1H-imidazol-2-yl)-7-chloro-8-fluoro-3,3-dimethyl-3,4,13,14-tetrahydrobenzo[5,6]azocino[4,3-g]indolizine-1,10(2H,12H)-dione]	1.2	0.598	> 10000	–	–
CC1(C)Cc2ccc(Cl)c(F)c2-c2cc(=O)n3c(c2C(=O)N1)CC[C@@H]3c1ncc(-c2ccc(N)nc2F)[nH]1 (single isomer, unassigned) [Compound 28, (R*)-12-(5-(6-amino-2-fluoropyridin-3-yl)-1H-imidazol-2-yl)-7-chloro-8-fluoro-3,3-dimethyl-3,4,13,14-tetrahydrobenzo[5,6]azocino[4,3-g]indolizine-1,10(2H,12H)-dione]	–	~0.392	> 10000	~0.783	–
CC1(C)Cc2ccc(Cl)c(F)c2-c2cc(=O)n3c(c2C(=O)N1)CC[C@H]3c1ncc(-c2ccc(N)nc2F)[nH]1 (single isomer, unassigned) [Compound 29, (S*)-12-(5-(6-amino-2-fluoropyridin-3-yl)-1H-imidazol-2-yl)-7-chloro-8-fluoro-3,3-dimethyl-3,4,13,14-tetrahydrobenzo[5,6]azocino[4,3-g]indolizine-1,10(2H,12H)-dione]	–	0.0004	350	0.0008	–
Nc1ccc(-c2cnc(C3CCc4c5c(cc(=O)n43)-c3c(ccc(Cl)c3F)-c3ccncc3NC5=O)[nH]2)c(F)n1 (single isomer, unassigned) [Compound 36, (S*)-3-(5-(6-amino-2-fluoropyridin-3-yl)-1H-imidazol-2-yl)-8-chloro-7-fluoro-2,3-dihydrobenzo[5,6]pyrido[4′,3′:7,8]azocino[4,3-g]indolizine-5,16(1H,15H)-dione]	~5.75	–	> 10000	–	~2.87
Nc1ccc(-c2cnc(C3CCc4c5c(cc(=O)n43)-c3c(ccc(Cl)c3F)-c3ccccc3NC5=O)[nH]2)c(F)n1 (single isomer, unassigned) [Compound 38, (R*)-3-(5-(6-amino-2-fluoropyridin-3-yl)-1H-imidazol-2-yl)-8-chloro-7-fluoro-2,3-dihydrodibenzo[5,6:7,8]azocino[4,3-g]indolizine-5,16(1H,15H)-dione]	–	0.0186	1620	0.0372	–

Other lines, results leading:

IC50 (Factor XIa; [1]) [µM]	Ki (Factor XIa) [µM]	IC50 (human plasma kallikrein) [nM]	IC50 (Factor XIa; [2]) [µM]	Ki (Factor XIa; [3]) [µM]	Structure (SMILES)
–	~0.0391	3950	~0.078	–	Nc1ccc(-c2cnc(C3CCc4c5c(cc(=O)n43)-c3c(ccc(Cl)c3F)-c3ccncc3NC5=O)[nH]2)c(F)n1 (single isomer, unassigned) [Compound 37, (R*)-3-(5-(6-amino-2-fluoropyridin-3-yl)-1H-imidazol-2-yl)-8-chloro-7-fluoro-2,3-dihydrobenzo[5,6]pyrido[4′,3′:7,8]azocino[4,3-g]indolizine-5,16(1H,15H)-dione]
> 10	–	> 10000	–	> 5	Nc1ccc(-c2cnc(C3CCc4c5c(cc(=O)n43)-c3c(ccc(Cl)c3F)-c3ccccc3NC5=O)[nH]2)c(F)n1 (single isomer, unassigned) [Compound 39, (S*)-3-(5-(6-amino-2-fluoropyridin-3-yl)-1H-imidazol-2-yl)-8-chloro-7-fluoro-2,3-dihydrodibenzo[5,6:7,8]azocino[4,3-g]indolizine-5,16(1H,15H)-dione]
–	0.0001	90	0.0003	–	Nc1ccc(-c2cnc(C3CCc4c5c(cc(=O)n43)-c3c(ccc(Cl)c3F)CC3(CC3)NC5=O)[nH]2)c(F)n1 (single isomer, unassigned) [Compound 55]
